Literature values in patent US8324158B2, “Methods for inhibiting CLC-2 channel with GATX2” (Georgia Tech Research Corporation, priority 2006, dated 2012).

Target: ClC-1 (Homo sapiens, UniProt P35523)
Sequence (P35523 whole entry, species assumed): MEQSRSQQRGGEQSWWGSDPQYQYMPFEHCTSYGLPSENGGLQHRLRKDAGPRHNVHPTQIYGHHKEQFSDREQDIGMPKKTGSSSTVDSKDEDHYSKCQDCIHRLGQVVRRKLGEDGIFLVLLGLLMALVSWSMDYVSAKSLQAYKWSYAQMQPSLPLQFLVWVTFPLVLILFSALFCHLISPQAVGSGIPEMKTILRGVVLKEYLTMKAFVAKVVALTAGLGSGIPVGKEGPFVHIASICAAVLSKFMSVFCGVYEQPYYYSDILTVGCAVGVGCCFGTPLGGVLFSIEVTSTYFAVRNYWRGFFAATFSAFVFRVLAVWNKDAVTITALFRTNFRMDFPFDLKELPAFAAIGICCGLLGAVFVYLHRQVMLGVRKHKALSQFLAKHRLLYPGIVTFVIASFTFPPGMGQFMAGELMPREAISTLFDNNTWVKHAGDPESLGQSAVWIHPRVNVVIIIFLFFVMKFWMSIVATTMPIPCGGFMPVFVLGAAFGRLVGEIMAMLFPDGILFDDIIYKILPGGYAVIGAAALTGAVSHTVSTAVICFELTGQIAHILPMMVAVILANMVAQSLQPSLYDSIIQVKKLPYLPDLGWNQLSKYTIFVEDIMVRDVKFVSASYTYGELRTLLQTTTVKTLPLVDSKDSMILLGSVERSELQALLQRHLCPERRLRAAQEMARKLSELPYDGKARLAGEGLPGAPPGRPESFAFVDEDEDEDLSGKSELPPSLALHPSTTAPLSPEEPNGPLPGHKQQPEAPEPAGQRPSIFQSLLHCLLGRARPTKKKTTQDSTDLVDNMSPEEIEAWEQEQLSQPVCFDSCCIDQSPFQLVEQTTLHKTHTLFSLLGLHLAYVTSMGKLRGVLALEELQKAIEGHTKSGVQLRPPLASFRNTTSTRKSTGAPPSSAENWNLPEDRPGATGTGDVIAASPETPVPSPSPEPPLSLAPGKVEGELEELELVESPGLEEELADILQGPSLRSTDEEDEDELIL

## CC(Oc1ccc(Cl)cc1)C(=O)O (stereo not shown) [CPP]
  Kd: 15 µM
